Results reported in ChEMBL document CHEMBL1201862, “PubChem BioAssay data set” (2004).
The source made the active and inactive calls.

Tests used:
[1] = tested on: HeLa; test: HeLa cell cytotoxicity, dose response, cytotoxicity control for MITF activator project, CellTiter-Glo luminescence, cherry-pick samples (AID 540259); format: functional, cell-based; conditions: Homo sapiens
[2] = biological target: T1, Polyadenylate-binding protein 1 (Homo sapiens, UniProt P11940); test: PABP1 MLLE–PAM2 interaction inhibitors, dose response, miRNA deadenylation inhibitor project, biochemical, fluorescence polarization, Cy5-PAM2 peptide, secondary (AID 602260); format: functional; conditions: read-out: IC50_Mean
[3] = tested on: HEK293; test: inhibitors of LMP1-driven NF-kB reporter, dose response, cell-based, HEK293, luciferase, cherry-pick (AID 588343); format: functional; conditions: Homo sapiens
[4] = tested on: Vero; test: cells; format: functional; conditions: Chlorocebus sabaeus
[5] = tested on: Streptococcus; test: Group A Streptococcus viability loss, dose response, counter-screen for streptokinase expression inhibitor project, luminescence, BacTiterGlo (AID 1915); format: functional, organism-based;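 note: potency for reduction of bacterial viability or growth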
[6] = biological target: T1, Polyadenylate-binding protein 1; test: PABP1 MLLE–PAM2 binding inhibitor potency, dose response, biochemical, fluorescence polarization, FITC-PAM2 peptide (AID 602259); format: functional; conditions: read-out: IC50_Mean
[7] = tested on: Streptococcus sp. 'group A'; test: growth inhibition of control SK(-) GAS strain, dose response, counter-screen for streptokinase expression inhibitor project, luminescence, kanamycin, BacTiterGlo, confirmation (AID 1900); format: functional, organism-based
[8] = biological target: Induced myeloid leukemia cell differentiation protein Mcl-1 (Homo sapiens, UniProt Q07820); format: functional
[9] = biological target: DNA dC->dU-editing enzyme APOBEC-3G (Homo sapiens, UniProt Q9HC16); test: Dose Response confirmation of small molecule APOBEC3G DNA Deaminase Inhibitors via a fluorescence-based single-stranded DNA deaminase assay. [Related pubchem assays (depositor defined):AID493012, AID493028]; format: functional
[10] = biological target: T2, Sentrin-specific protease 7 (Homo sapiens, UniProt Q9BQF6); format: functional;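 note: Luminescence-based dose-response confirmation of ultra-high-throughput screening hits, measuring inhibition of SENP7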
T2 sequence (Q9BQF6 whole entry): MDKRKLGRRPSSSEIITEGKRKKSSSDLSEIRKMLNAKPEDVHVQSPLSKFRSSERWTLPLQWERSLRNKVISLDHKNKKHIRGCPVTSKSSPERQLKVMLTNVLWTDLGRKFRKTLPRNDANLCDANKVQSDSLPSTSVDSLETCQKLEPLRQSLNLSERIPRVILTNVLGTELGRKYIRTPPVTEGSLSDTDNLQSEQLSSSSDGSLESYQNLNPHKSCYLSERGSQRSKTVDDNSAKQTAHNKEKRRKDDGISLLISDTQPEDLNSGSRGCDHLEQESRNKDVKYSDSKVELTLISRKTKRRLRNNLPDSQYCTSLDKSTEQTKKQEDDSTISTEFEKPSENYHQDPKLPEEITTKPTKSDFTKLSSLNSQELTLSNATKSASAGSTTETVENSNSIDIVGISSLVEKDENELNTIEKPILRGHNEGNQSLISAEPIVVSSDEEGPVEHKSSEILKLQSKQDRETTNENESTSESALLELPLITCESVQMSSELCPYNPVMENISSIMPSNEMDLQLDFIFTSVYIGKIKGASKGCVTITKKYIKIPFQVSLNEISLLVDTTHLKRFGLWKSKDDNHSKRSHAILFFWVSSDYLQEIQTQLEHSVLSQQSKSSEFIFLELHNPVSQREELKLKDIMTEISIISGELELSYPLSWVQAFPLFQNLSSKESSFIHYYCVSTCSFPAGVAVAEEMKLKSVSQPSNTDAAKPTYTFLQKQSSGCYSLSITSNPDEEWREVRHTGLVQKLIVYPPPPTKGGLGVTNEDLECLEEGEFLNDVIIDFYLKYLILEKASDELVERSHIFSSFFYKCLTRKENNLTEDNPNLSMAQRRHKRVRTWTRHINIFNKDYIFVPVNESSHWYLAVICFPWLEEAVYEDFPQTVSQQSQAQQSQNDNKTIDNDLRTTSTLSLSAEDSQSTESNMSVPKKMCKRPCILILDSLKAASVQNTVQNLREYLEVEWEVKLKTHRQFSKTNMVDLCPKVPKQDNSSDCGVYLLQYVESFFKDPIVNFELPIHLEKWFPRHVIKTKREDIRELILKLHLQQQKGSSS

[11] = biological target: T3, Sentrin-specific protease 6 (Homo sapiens, UniProt Q9GZR1); format: functional;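 note: Luminescence-based dose-response confirmatory assay of SENP6 inhibition, following up an ultra-high-throughput screen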
T3 sequence (Q9GZR1 whole entry): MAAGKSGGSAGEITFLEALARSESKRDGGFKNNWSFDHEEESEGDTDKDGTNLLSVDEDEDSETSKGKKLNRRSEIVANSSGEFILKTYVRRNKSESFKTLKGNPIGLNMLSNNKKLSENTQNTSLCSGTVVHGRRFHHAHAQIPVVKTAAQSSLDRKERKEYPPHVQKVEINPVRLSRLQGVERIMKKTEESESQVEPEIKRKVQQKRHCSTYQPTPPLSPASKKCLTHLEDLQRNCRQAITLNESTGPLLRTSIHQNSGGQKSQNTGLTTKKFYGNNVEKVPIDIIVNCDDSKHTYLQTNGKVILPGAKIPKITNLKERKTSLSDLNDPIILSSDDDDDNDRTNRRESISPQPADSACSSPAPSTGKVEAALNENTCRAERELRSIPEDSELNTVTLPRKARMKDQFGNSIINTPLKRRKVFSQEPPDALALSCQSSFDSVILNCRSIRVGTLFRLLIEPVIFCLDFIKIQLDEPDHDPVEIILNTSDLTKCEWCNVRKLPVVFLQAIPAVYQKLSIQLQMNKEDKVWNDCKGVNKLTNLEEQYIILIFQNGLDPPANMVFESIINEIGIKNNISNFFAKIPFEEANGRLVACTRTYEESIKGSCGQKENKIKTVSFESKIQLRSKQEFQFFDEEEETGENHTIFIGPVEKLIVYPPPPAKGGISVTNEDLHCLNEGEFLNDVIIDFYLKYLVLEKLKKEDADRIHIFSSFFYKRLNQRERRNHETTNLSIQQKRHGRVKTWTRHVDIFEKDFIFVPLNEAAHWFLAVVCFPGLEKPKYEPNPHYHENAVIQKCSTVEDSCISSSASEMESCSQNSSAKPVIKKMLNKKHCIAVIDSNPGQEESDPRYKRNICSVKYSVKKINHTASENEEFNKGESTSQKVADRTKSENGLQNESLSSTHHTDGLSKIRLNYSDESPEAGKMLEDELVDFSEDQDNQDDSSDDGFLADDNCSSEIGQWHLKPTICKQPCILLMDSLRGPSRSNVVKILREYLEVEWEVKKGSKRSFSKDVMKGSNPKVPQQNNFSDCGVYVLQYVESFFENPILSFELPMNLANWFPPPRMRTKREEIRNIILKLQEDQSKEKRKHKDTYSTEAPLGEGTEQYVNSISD

[12] = biological target: T4, Caspase-3 (Homo sapiens, UniProt P42574); format: functional;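 note: Dose-response selectivity test against caspase-3 for candidate inhibitors of sentrin-specific proteases (SENPs)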
T4 sequence (P42574 whole entry): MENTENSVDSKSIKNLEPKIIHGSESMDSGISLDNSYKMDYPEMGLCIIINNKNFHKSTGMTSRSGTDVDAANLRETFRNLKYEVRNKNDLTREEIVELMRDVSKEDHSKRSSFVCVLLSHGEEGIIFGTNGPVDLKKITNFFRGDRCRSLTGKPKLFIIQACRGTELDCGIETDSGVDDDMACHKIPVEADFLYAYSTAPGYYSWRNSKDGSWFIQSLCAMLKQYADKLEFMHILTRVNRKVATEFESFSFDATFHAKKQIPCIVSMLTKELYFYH

[13] = biological target: T5, Sentrin-specific protease 8 (Homo sapiens, UniProt Q96LD8); format: functional;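 note: luminescence read-out of SENP8 inhibition, dose-response confirmation following an ultra-high-throughput screen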
T5 sequence (Q96LD8 whole entry): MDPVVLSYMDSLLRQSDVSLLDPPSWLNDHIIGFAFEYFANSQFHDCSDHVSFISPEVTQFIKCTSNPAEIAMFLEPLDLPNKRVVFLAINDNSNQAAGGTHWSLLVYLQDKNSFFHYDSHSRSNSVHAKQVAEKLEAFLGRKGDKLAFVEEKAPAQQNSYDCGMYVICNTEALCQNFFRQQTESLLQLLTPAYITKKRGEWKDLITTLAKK

[14] = tested on: H4; test: Luminescence Cell-Based Dose Response HTS to Identify Activators of 5'UTR Stem-Loop Driven Prion Protein mRNA Translation in H4 Neuroglioblastoma Cells. [Related pubchem assays: 1829 (Project Summary), 1814 (Primary HTS)]; format: functional; conditions: Homo sapiens
[15] = Luminescence Cell-Based Dose Response HTS to Identify Activators of Luciferase Translation or Activity in H4 […] Cells. [Related pubchem assays: 1829 (Project Summary), 1814 (Primary HTS)]; format: functional
[16] = cytotoxicity in OVCAR8 ovarian cancer cells, dose response, PAX8 project, cell-based, plate reader, dry powder samples (AID 743197); format: functional; conditions: OVCAR-8
[17] = biological target: Paired box protein Pax-8 (Homo sapiens, UniProt Q06710); test: inhibitors of PAX8-driven TPO luciferase reporter, dose response, RMG-I cells, cherry-pick (AID 687027); format: functional, cell-based;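 note: luciferase reporter driven by Pax8 target thyroperoxidase promoter measured by SteadyGlo luminescence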
[18] = biological target: T6, High affinity choline transporter 1 (Homo sapiens, UniProt Q9GZV3); test: CHT inhibitors, dose response, cell-based, 5-point CRC, membrane potential dye (AID 504840); format: functional
T6 sequence (Q9GZV3 whole entry): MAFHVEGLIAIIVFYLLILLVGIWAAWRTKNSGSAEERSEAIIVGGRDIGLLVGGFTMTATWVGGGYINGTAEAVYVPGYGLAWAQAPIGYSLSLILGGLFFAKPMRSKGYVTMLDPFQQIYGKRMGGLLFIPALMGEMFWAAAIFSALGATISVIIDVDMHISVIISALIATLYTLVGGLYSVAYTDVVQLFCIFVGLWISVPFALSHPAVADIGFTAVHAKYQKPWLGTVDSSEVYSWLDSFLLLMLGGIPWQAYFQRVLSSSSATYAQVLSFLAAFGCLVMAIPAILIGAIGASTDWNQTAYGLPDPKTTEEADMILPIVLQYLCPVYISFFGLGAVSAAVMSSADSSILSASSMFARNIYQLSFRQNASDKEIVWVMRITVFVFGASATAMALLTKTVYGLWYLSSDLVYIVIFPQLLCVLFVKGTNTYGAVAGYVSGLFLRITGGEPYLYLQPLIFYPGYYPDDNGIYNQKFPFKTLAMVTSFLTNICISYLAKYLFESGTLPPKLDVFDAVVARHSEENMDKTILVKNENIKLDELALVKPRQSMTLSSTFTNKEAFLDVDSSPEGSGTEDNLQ

[19] = HEp-2 cell cytotoxicity, dose response, cytotoxicity control for RSV inhibitor project, HTS (AID 2410); format: functional; conditions: human respiratory syncytial virus

Sequence of DNA dC->dU-editing enzyme APOBEC-3G (Q9HC16 whole entry): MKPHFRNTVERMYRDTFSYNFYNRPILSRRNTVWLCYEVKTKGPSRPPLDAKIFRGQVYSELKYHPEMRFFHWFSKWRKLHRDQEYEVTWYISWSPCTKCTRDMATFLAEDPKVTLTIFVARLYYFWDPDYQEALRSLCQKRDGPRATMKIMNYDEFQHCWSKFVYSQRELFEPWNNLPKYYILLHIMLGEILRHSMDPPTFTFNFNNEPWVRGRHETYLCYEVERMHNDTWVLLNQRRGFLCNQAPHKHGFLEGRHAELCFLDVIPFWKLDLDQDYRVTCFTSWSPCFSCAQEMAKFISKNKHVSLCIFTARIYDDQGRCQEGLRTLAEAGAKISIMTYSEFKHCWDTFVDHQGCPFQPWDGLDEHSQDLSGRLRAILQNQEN
Sequence of Paired box protein Pax-8 (Q06710 whole entry): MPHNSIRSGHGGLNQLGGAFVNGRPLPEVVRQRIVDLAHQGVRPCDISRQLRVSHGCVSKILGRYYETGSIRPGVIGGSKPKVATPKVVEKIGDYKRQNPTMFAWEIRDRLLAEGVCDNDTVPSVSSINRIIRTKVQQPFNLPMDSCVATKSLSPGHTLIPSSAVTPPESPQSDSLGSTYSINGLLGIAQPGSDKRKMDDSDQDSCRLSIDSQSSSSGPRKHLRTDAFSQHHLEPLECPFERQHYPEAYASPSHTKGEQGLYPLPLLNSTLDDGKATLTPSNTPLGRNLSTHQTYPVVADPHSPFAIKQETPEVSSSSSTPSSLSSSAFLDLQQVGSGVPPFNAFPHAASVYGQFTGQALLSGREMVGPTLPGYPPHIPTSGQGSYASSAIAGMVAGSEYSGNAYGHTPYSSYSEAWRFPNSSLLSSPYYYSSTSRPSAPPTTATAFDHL
Sequence of Induced myeloid leukemia cell differentiation protein Mcl-1 (Q07820 whole entry): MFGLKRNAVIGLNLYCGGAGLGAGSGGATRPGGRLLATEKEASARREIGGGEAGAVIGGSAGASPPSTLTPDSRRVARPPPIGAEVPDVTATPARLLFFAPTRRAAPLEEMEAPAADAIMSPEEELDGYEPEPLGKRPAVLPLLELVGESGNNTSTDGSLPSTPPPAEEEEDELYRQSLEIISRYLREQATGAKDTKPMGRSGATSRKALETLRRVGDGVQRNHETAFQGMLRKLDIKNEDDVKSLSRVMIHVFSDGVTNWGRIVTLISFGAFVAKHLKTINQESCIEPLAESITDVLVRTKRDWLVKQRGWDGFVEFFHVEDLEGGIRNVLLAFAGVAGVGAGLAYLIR
T1 sequence (P11940 whole entry): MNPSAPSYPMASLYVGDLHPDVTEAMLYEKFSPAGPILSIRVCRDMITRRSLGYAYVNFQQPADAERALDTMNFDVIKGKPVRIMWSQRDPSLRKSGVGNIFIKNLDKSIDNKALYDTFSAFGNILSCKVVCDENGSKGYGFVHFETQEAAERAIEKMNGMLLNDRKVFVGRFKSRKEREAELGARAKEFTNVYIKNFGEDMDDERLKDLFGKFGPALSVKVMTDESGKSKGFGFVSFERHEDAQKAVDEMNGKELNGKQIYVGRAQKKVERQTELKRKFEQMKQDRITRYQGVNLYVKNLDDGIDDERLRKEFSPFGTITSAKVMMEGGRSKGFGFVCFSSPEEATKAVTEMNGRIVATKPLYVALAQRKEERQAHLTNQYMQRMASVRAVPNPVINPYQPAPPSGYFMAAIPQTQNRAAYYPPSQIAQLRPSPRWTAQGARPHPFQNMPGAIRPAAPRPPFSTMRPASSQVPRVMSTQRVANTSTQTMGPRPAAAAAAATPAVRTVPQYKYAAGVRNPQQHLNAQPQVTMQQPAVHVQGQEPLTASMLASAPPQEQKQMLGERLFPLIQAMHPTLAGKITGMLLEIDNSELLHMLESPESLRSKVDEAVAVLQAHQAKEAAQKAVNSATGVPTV

For `Cn1c(SCc2ccccc2Cl)nc2ccccc21`, the AC50 [1] was 75 µM (active).
For `COc1cccc(CN(C)C(=O)c2ccc(COc3ccc(Cl)cc3)cc2)c1OC`, the AC50 [1] was 54.8 µM (active).
With `C=CCn1c(O)c(N=NC(S)=Nc2ccccc2F)c2ccccc21` the IC50 [2] was > 66 µM (inactive), the AC50 [3] was 2.88 µM (active) and the CC50 [4] was 18.2 µM (active). The EC50 [5] was 1.08 µM (active), the IC50 [6] was > 66 µM (inactive) and the EC50 [7] was 0.628 µM (active).
In the case of `CC1=C(C(=O)OCC(C)C)C(c2ccsc2)NC(=O)N1` (stereo not drawn), the IC50 [8] is reported as 2.4 µM (not active).
For `CCn1c(S)nnc1CCCCc1nnc(S)n1CC`, the IC50 [9] was 25.8 µM (active).
For `Cc1ccccc1-c1nc2sc3c(c2c(=O)o1)CCC3`, the IC50 [10] was 2.23 µM (active), the IC50 [11] was 3.42 µM (active) and the IC50 [12] was 1.73 µM (active). The IC50 [13] was > 100 µM (inactive).
For `COc1ccc(NC(C)=O)cc1S(=O)(=O)Nc1ccccc1C(=O)NCCc1ccccc1`, the AC50 [1] was 230 µM (active), the EC50 [14] was 50.7 µM (active) and the EC50 [15] was 0.519 µM (active).
With `COc1ccc(N2C(=O)CC(Sc3n[nH]c(-c4ccc(C)cc4)n3)C2=O)cc1` (stereo not drawn) the IC50 [9] was 21.2 µM (active).
For `COc1cc(SC)ccc1C(=O)N1CCN(c2ccccc2)CC1`, the IC50 [8] was < 0.4 µM (not active).
With `CN1c2ccc(-c3cccc(F)c3)cc2[C@@H]2[C@@H](CCN2C(=O)Cc2ccccc2)[C@@H]1CO` the AC50 [16] was > 70 µM (inactive) and the AC50 [17] was 10.2 µM (active).
For `O=C(O)CC(Sc1nnc(S)s1)C(=O)O` (stereo not drawn), the IC50 [9] was 45.1 µM (active).
In the case of `O=c1c2ccccc2nnn1CSc1nc2sc3c(c2c(=O)n1CC1CCCO1)CCC3` (stereo not drawn), the IC50 [18] is reported as 15.8 µM (active).
For `CCOC(=O)c1c(C)oc2c1c(C(c1ccncc1)N1CCOCC1)c(O)c1ccccc12` (stereo not drawn), the IC50 [8] was 1.16 µM (active).
In the case of `O=C(N/N=C/C1CC=CCC1)c1cc(-c2cccnc2)nc2ccccc12` (stereo not drawn), the IC50 [18] is reported as 15.1 µM (active).
For `Cc1nc(C(C)NC(=O)CCc2nnc(CCCc3ccccc3)o2)c(C)s1` (stereo not drawn), the AC50 [1] was 314 µM (active).
For `Cc1ccc(-n2nc3ccc(NC(=O)C(C)C)cc3n2)cc1`, the AC50 [1] was 54.8 µM (active).
In the case of `COc1ccc(-c2ccc3c(c2)[C@@H]2[C@@H](CCN2C(=O)C2CCCC2)[C@H](CO)N3C)cc1`, the AC50 [16] is reported as > 70 µM (inactive) and the AC50 [17] is reported as 14.2 µM (active).
With `CC(C)OC(=O)Cn1cnc2ccc(Br)cc2c1=O` the IC50 [8] was 24.1 µM (not active).
In the case of `COc1ccccc1-c1cnn2c(NC3CCCC3)cc(C)nc12`, the AC50 [1] is reported as 117 µM (active), the EC50 [14] is reported as 16.2 µM (active) and the EC50 [15] is reported as 0.139 µM (active). The CC50 [19] was 40 µM (active).
For `Cc1ccc(-c2cccc(CN3CCN(C(C)C)C(CCO)C3)c2)o1` (stereo not drawn), the IC50 [18] was 7.85 µM (active).
With `C[C@@H]1CN([C@@H](C)CO)C(=O)c2cc(NS(=O)(=O)c3ccc(F)cc3)ccc2O[C@@H]1CN(C)Cc1ccc(C(F)(F)F)cc1` the AC50 [16] was 49.5 µM (active) and the AC50 [17] was 15.3 µM (active).
With `Cc1ccc(SCC2=NN(c3nc(C)cc(C)n3)C(=O)C2)cc1` the IC50 [18] was 10.5 µM (active).
